Assay results as given in PubChem BioAssay AID2060503 (Molecular Pharmacology Branch, DTP, NCI, 2025).
pIC50: −log10 of the molar value.

Tested on: 817829-284-R-J1-PDC complex spheroids, viability
Assay: Anticancer human tumor 817829-284-R-J1-PDC patient-derived colon adenocarcinoma cell line growth inhibition [GQUAD]
Settings: for pIC50: curve of first compound; for viability, T/C: stronger effect = lower value
Summary of the method: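 Viability of tumor cells grown as complex spheroids with endothelial and stromal cells, exposed to drug combinations. Top concentration at or near clinical Cmax (else 10 microM), diluted in half-log increments.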

[1] = second compound 0.0316 µM, first compound 0.0316 µM
[2] = second compound 0.0316 µM, first compound 0.1 µM
[3] = second compound 0.0316 µM, first compound 0.316 µM
[4] = second compound 0.0316 µM, first compound 1 µM
[5] = second compound 0.0316 µM, first compound 3.16 µM
[6] = second compound 0.0316 µM, first compound 10 µM
[7] = second compound 0.1 µM, first compound 0.0316 µM
[8] = second compound 0.1 µM, first compound 0.1 µM
[9] = second compound 0.1 µM, first compound 0.316 µM
[10] = second compound 0.1 µM, first compound 1 µM
[11] = second compound 0.1 µM, first compound 3.16 µM
[12] = second compound 0.1 µM, first compound 10 µM
[13] = second compound 0.316 µM, first compound 0.0316 µM
[14] = second compound 0.316 µM, first compound 0.1 µM
[15] = second compound 0.316 µM, first compound 0.316 µM
[16] = second compound 0.316 µM, first compound 1 µM
[17] = second compound 0.316 µM, first compound 3.16 µM
[18] = second compound 0.316 µM, first compound 10 µM
[19] = second compound 1 µM, first compound 0.0316 µM
[20] = second compound 1 µM, first compound 0.1 µM
[21] = second compound 1 µM, first compound 0.316 µM
[22] = second compound 1 µM, first compound 1 µM
[23] = second compound 1 µM, first compound 3.16 µM
[24] = second compound 1 µM, first compound 10 µM
[25] = second compound 3.16 µM, first compound 0.0316 µM
[26] = second compound 3.16 µM, first compound 0.1 µM
[27] = second compound 3.16 µM, first compound 0.316 µM
[28] = second compound 3.16 µM, first compound 1 µM
[29] = second compound 3.16 µM, first compound 3.16 µM
[30] = second compound 3.16 µM, first compound 10 µM
[31] = second compound 10 µM, first compound 0.0316 µM
[32] = second compound 10 µM, first compound 0.1 µM
[33] = second compound 10 µM, first compound 0.316 µM
[34] = second compound 10 µM, first compound 1 µM
[35] = second compound 10 µM, first compound 3.16 µM
[36] = second compound 10 µM, first compound 10 µM
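Also: spheroids exposed to agents for 7 days before readout.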
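For viability, T/C in this document: percent viability relative to DMSO vehicle control taken as 100%.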

With `COc1cccc2c1C(=O)c1c(O)c3c(c(O)c1C2=O)CC(O)(C(=O)CO)CC3OC1CC(N)C(O)C(C)O1` (stereo unspecified) + Cc1cnc(CNC(=O)c2c(=O)c3ccc(N4CCCN(C)CC4)nc3n3c2sc2ccccc23)cn1 the pIC50 (second compound 0.0316 µM) was > 7.50, the pIC50 (second compound 0.1 µM) was > 7.50 and the pIC50 (second compound 0.316 µM) was > 7.50. For the same molecule, the pIC50 (second compound 1 µM) was > 7.50, the pIC50 (second compound 3.16 µM) was > 7.50 and the pIC50 (second compound 10 µM) was > 7.50. The viability, T/C [1] was 50.1%, the viability, T/C [2] was 28.6% and the viability, T/C [3] was 25.7%. The viability, T/C [4] was 7.54%, the viability, T/C [5] was 0.23% and the viability, T/C [6] was 0.16%. The viability, T/C [7] was 27.2%, the viability, T/C [8] was 26.8% and the viability, T/C [9] was 17.2%. The viability, T/C [10] was 9.6%, the viability, T/C [11] was 0.27% and the viability, T/C [12] was 0.19%. For the same molecule, the viability, T/C [13] was 21.8%, the viability, T/C [14] was 24.4% and the viability, T/C [15] was 18.2%. For the same molecule, the viability, T/C [16] was 6.76%, the viability, T/C [17] was 0.15% and the viability, T/C [18] was 0.22%. It also gave a viability, T/C [19] of 19.9%, a viability, T/C [20] of 21.5% and a viability, T/C [21] of 18.9%. It also gave a viability, T/C [22] of 8.23%, a viability, T/C [23] of 0.07% and a viability, T/C [24] of 0.08%. It also gave a viability, T/C [25] of 17.8%, a viability, T/C [26] of 16.4% and a viability, T/C [27] of 13.9%. The viability, T/C [28] was 7.35%, the viability, T/C [29] was 0.11% and the viability, T/C [30] was 0.11%. For the same molecule, the viability, T/C [31] was 0.07%, the viability, T/C [32] was 0.12% and the viability, T/C [33] was 0.16%. For the same molecule, the viability, T/C [34] was 0.12%, the viability, T/C [35] was 0.19% and the viability, T/C [36] was 0.18%.

With `Cn1ncnc1[C@H]1c2n[nH]c(=O)c3cc(F)cc(c23)N[C@@H]1c1ccc(F)cc1` + Cc1cnc(CNC(=O)c2c(=O)c3ccc(N4CCCN(C)CC4)nc3n3c2sc2ccccc23)cn1 the pIC50 (second compound 0.0316 µM) was 7.56, the pIC50 (second compound 0.1 µM) was > 9.00 and the pIC50 (second compound 0.316 µM) was > 9.00. The pIC50 (second compound 1 µM) was > 9.00, the pIC50 (second compound 3.16 µM) was > 9.00 and the pIC50 (second compound 10 µM) was > 9.00. For the same molecule, the viability, T/C (second compound 0.0316 µM, first compound 0.000999 µM) was 84.5%, the viability, T/C (second compound 0.0316 µM, first compound 0.00316 µM) was 70.5% and the viability, T/C (second compound 0.0316 µM, first compound 0.00999 µM) was 58.1%. For the same molecule, the viability, T/C [1] was 48.8%, the viability, T/C (second compound 0.0316 µM, first compound 0.0999 µM) was 43.6% and the viability, T/C [3] was 42.4%. The viability, T/C (second compound 0.1 µM, first compound 0.000999 µM) was 38.6%, the viability, T/C (second compound 0.1 µM, first compound 0.00316 µM) was 35.7% and the viability, T/C (second compound 0.1 µM, first compound 0.00999 µM) was 29.8%. It also gave a viability, T/C [7] of 34.2%, a viability, T/C (second compound 0.1 µM, first compound 0.0999 µM) of 31.7% and a viability, T/C [9] of 29.6%. It also gave a viability, T/C (second compound 0.316 µM, first compound 0.000999 µM) of 26.3%, a viability, T/C (second compound 0.316 µM, first compound 0.00316 µM) of 25.3% and a viability, T/C (second compound 0.316 µM, first compound 0.00999 µM) of 27.7%. The viability, T/C [13] was 26.7%, the viability, T/C (second compound 0.316 µM, first compound 0.0999 µM) was 26.4% and the viability, T/C [15] was 25.3%. The viability, T/C (second compound 1 µM, first compound 0.000999 µM) was 21.2%, the viability, T/C (second compound 1 µM, first compound 0.00316 µM) was 22.5% and the viability, T/C (second compound 1 µM, first compound 0.00999 µM) was 23.2%. It also gave a viability, T/C [19] of 22.9%, a viability, T/C (second compound 1 µM, first compound 0.0999 µM) of 23.3% and a viability, T/C [21] of 22%. It also gave a viability, T/C (second compound 3.16 µM, first compound 0.000999 µM) of 20.3%, a viability, T/C (second compound 3.16 µM, first compound 0.00316 µM) of 21% and a viability, T/C (second compound 3.16 µM, first compound 0.00999 µM) of 19.8%. The viability, T/C [25] was 19.4%, the viability, T/C (second compound 3.16 µM, first compound 0.0999 µM) was 20.4% and the viability, T/C [27] was 16.3%. For the same molecule, the viability, T/C (second compound 10 µM, first compound 0.000999 µM) was 0.16%, the viability, T/C (second compound 10 µM, first compound 0.00316 µM) was 0.2% and the viability, T/C (second compound 10 µM, first compound 0.00999 µM) was 0.19%. It also gave a viability, T/C [31] of 0.17%, a viability, T/C (second compound 10 µM, first compound 0.0999 µM) of 0.19% and a viability, T/C [33] of 0.2%.

In the case of `Nc1ccn(C2OC(CO)C(O)C2(F)F)c(=O)n1` (stereo unspecified) + Cc1cnc(CNC(=O)c2c(=O)c3ccc(N4CCCN(C)CC4)nc3n3c2sc2ccccc23)cn1, the pIC50 (second compound 0.0316 µM) was > 7.50, the pIC50 (second compound 0.1 µM) was > 7.50 and the pIC50 (second compound 0.316 µM) was > 7.50. The pIC50 (second compound 1 µM) was > 7.50, the pIC50 (second compound 3.16 µM) was > 7.50 and the pIC50 (second compound 10 µM) was > 7.50. For the same molecule, the viability, T/C [1] was 17.2%, the viability, T/C [2] was 7.44% and the viability, T/C [3] was 7.25%. It also gave a viability, T/C [4] of 5.51%, a viability, T/C [5] of 5.09% and a viability, T/C [6] of 3.11%. The viability, T/C [7] was 18%, the viability, T/C [8] was 10.7% and the viability, T/C [9] was 5.49%. For the same molecule, the viability, T/C [10] was 7.04%, the viability, T/C [11] was 6.51% and the viability, T/C [12] was 4.03%. For the same molecule, the viability, T/C [13] was 15.3%, the viability, T/C [14] was 11.4% and the viability, T/C [15] was 8.25%. It also gave a viability, T/C [16] of 7.77%, a viability, T/C [17] of 4.4% and a viability, T/C [18] of 3.63%. The viability, T/C [19] was 15.6%, the viability, T/C [20] was 10.3% and the viability, T/C [21] was 7.69%. The viability, T/C [22] was 5.93%, the viability, T/C [23] was 4.41% and the viability, T/C [24] was 2.57%. The viability, T/C [25] was 15%, the viability, T/C [26] was 8.99% and the viability, T/C [27] was 5.76%. For the same molecule, the viability, T/C [28] was 5.67%, the viability, T/C [29] was 1% and the viability, T/C [30] was 0.14%. For the same molecule, the viability, T/C [31] was 0.09%, the viability, T/C [32] was 0.13% and the viability, T/C [33] was 0.12%. For the same molecule, the viability, T/C [34] was 0.12%, the viability, T/C [35] was 0.14% and the viability, T/C [36] was 0.15%.
